In patent US12331033B2, “Inhibitors of SARM1” (Disarm Therapeutics, Inc., priority 2020, dated 2025) one finds IC50 data, which are given here for 66 compounds.

Sequence of SARM1 (ARM-SAM-TIR) (Q6SZW1 other isoform, or with tags, fused parts or gaps): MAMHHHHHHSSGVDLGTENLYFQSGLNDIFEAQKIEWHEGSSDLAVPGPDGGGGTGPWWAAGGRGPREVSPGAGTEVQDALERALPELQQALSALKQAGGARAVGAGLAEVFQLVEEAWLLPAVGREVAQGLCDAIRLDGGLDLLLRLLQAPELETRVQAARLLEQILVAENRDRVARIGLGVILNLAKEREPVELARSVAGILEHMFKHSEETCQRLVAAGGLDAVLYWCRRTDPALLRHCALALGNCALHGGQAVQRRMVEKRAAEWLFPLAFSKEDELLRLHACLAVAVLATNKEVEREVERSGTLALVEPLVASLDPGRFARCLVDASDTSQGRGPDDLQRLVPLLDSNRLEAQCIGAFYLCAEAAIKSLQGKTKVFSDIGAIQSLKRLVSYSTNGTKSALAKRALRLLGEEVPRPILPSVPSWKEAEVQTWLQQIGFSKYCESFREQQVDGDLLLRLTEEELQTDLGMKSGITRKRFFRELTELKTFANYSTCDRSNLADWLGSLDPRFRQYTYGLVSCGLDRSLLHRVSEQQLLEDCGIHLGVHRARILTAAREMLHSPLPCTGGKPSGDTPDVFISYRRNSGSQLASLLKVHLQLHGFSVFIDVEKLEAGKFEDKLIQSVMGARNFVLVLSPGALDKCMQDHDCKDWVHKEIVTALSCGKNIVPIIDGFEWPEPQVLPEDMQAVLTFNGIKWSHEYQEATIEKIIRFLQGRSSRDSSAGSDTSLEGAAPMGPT

This assay has as its target SARM1 (ARM-SAM-TIR) (Homo sapiens (Human), UniProt Q6SZW1). The assay can be described thus: ARM-SAM-TIR SARM1 IC50 assay (NADase activity, NAD+ cleavage, RapidFire MS). The class given is biochemical. The following applies: ARM-SAM-TIR lysate 5 μg/mL, 2 h pre-incubation, 5 μM NAD+, 2 hr room temperature. Here is the method: This Example describes an assay of ARM-SAM-TIR NADase activity and use of this assay to measure the efficacy of compounds of Formula I or Formula I′ to block SARM1 mediated NAD+ cleavage. This assay was optimized in such a way as to characterize the efficacy of the compounds in Formula I or Formula I′ to inhibit SARM1 activity and to calculate an IC50 value for each compound. This assay makes use of full length SARM1, which encompasses the ARM, SAM and TIR domains.
NRK1-HEK293T cells were seeded onto 150 cm^2 plates at 20×10^6 cells per plate. The next day, the cells were transfected with 15 μg ARM-SAM-TIR expression plasmid, SEQ ID NO: 1.
The cultures were supplemented with 1 mM NR at time of transfection to minimize toxicity from ARM-SAM-TIR overexpression. Forty-eight hours after transfection, cells were harvested, pelleted by centrifugation at 1,000 rpm (Sorvall ST 16R centrifuge, Thermo Fisher), and washed once with cold PBS (0.01 M phosphate buffered saline NaCl 0.138 M; KCl 0.0027 M; pH 7.4). The cells were resuspended in PBS with protease inhibitors (cOmplete™ protease inhibitor cocktail, Roche product #11873580001) and cell lysates were prepared by sonication (Branson Sonifer 450, output=3, 20 episodes of stroke). The lysates were centrifuged (12,000×g for 10 min at 4° C.) to remove cell debris and the supernatants (containing ARM-SAM-TIR protein) were stored at −80° C. for later use in the in vitro ARM-SAM-TIR NADase assay (see below). Protein concentration was determined by the Bicinchoninic (BCA) method and used to normalize lysate concentrations.
The enzymatic assay was performed in a 384-well polypropylene plate in Dulbecco's PBS buffer in a final assay volume of 20 μL. ARM-SAM-TIR lysate with a final concentration of 5 μg/mL was pre-incubated with the respective compound at 1% DMSO final assay concentration over 2 h at room temperature. The reaction was initiated by addition of 5 μM final assay concentration of NAD+ as substrate. After a 2 hr room temperature incubation, the reaction was terminated with 40 μL of stop solution of 7.5% trichloroactetic acid in acetonitrile. The NAD+ and ADPR concentrations were analyzed by a RapidFire High Throughput Mass Spectrometry System (Agilent Technologies, Santa Clara, Calif.) using an API4000 triple quadrupole mass spectrometer (AB Sciex Framingham, Mass.).
In the case of `Cc1c(-c2ccncc2)n[nH]c1NC(=O)CSc1ccc(Cl)cc1` [Example 292], the IC50 was less than 5 µM.

In turn, `O=C(C[C@@H]1CCOc2cc(Cl)ccc21)Nc1cc(-c2ccnnc2)n[nH]1` [Example 207] returned a half-maximal inhibitory concentration (IC50) of less than 5 µM.

On to `O=C(CCc1ccc(F)cc1Cl)Nc1nnc(-c2ccncc2)[nH]1` [Example 113], for which the IC50 is less than 5 µM.

With `COc1cccc(CCC(=O)Nc2nnc(-c3ccncc3)[nH]2)c1` [Example 108], the half-inhibitory concentration (IC50) lay in the range of 5 to 15 µM.

`CN[C@@H](Cc1ccc(Cl)cc1)C(=O)Nc1cc(-c2ccncc2)n[nH]1` [Example 176] displayed an IC50 of less than 5 µM.

As for `Cc1c(-c2ccncc2)n[nH]c1NC(=O)CCc1cccc(Cl)c1` [Example 248], the concentration for half-maximal inhibition (IC50) is less than 5 µM.

Take `O=C(Cc1ccccc1)Nc1nnc(-c2ccncc2)[nH]1` [Example 143]: the IC50 lay in the range of 15 to 30 µM.

With `O=C(C[C@H]1CCOc2ccccc21)Nc1nnc(-c2ccncc2)[nH]1` [Example 72], the half-inhibitory concentration (IC50) was less than 5 µM.

With `Cc1cccc(CS(=O)(=O)Nc2[nH]nc(-c3ccncc3)c2C)c1` [Example 254], the IC50 was 5 to 15 µM.

The compound `O=C(Nc1nnc(-c2ccnnc2)[nH]1)[C@H]1C[C@H](c2ccc(Cl)cc2)C1` [Example 196] yielded an IC50 of less than 5 µM.

The compound `[2H]C([2H])(C(=O)Nc1cc(-c2ccnnc2)n[nH]1)C([2H])([2H])c1ccc(Cl)nc1` [Example 190] yielded a concentration for half-maximal inhibition (IC50) of less than 5 µM.

`N[C@@H](Cc1ccc(Cl)cc1)C(=O)Nc1nnc(-c2ccncc2)[nH]1` [Example 56]: the 50% inhibitory concentration (IC50) was less than 5 µM.

In turn, `[2H]C([2H])(C(=O)Nc1nnc(-c2ccnnc2)[nH]1)C([2H])([2H])c1ccc(Cl)cc1` [Example 230] showed a 50% inhibitory concentration (IC50) of less than 5 µM.

`O=C(CN1CCCc2ccccc21)Nc1nnc(-c2ccncc2)[nH]1` [Example 76] gave an IC50 greater than 30 µM.

Turning to `N#Cc1c(-c2ccnnc2)n[nH]c1NC(=O)CCc1ccc(Cl)nc1` [Example 304], the half-maximal inhibitory concentration (IC50) is less than 5 µM.

Regarding `CC1(c2c(-c3ccncc3)n[nH]c2NC(=O)CCc2ccc(Cl)cc2)CC1` [Example 303], the half-inhibitory concentration (IC50) was less than 5 µM.

The compound `O=C(CCc1ccc(OC(F)F)cc1)Nc1nnc(-c2ccncc2)[nH]1` [Example 75] showed an IC50 of less than 5 µM.

As for `Cc1c(-c2ccncc2)n[nH]c1NC(=O)CCc1ccc(C#N)cc1` [Example 262], the IC50 was less than 5 µM.

`NC(Cc1ccc(Cl)c(F)c1)C(=O)Nc1cc(-c2ccncc2)n[nH]1` (stereo not drawn) [Example 175] returned an IC50 of less than 5 µM.

As to `N#Cc1cc(Cl)ccc1CCC(=O)Nc1nnc(-c2ccncc2)[nH]1` [Example 50], the IC50 was less than 5 µM.

In the case of `O=C(COc1ccc(Cl)cc1)Nc1nnc(-c2ccncc2)[nH]1` [Example 102], the IC50 fell in the range of 5 to 15 µM.

`O=C(CCc1ccc(Cl)cc1)Nc1nnc(-c2ccncc2F)[nH]1` [Example 11] had a concentration for half-maximal inhibition (IC50) of less than 5 µM.

`O=C(CC1CCOc2ccccc21)Nc1nnc(-c2ccncc2)[nH]1` (stereo not drawn) [Example 109] returned an IC50 of less than 5 µM.

Turning to `O=C(CN1CCOc2cc(Cl)ccc21)Nc1nnc(-c2ccncc2)[nH]1` [Example 48], the IC50 was less than 5 µM.

Compound `Cc1c(-c2ccncc2)n[nH]c1NC(=O)C1Cc2ccccc2CO1` (stereo not drawn) [Example 323] came in with a 50% inhibitory concentration (IC50) of 5 to 15 µM.

In turn, `O=C(CCc1ccc(Cl)cc1)Nc1cc(-c2ccncc2C2CC2)n[nH]1` [Example 298] yielded an IC50 of less than 5 µM.

In turn, `Cn1nc(NC(=O)CCc2ccccc2)nc1-c1ccncc1` [Example 111] gave an IC50 greater than 30 µM.

Turning to `Cc1c(-c2ccncc2)n[nH]c1NC(=O)CCc1cnc(Cl)c(F)c1` [Example 151], the IC50 is less than 5 µM.

`O=C(C[C@H]1CCOc2nc(Cl)ccc21)Nc1nnc(-c2ccncc2)[nH]1` [Example 232] had a concentration for half-maximal inhibition (IC50) of less than 5 µM.

As to `O=C(CCC1CCCCC1)Nc1nnc(-c2ccncc2)[nH]1` [Example 134], the IC50 lay in the range of 5 to 15 µM.

As to `CC1(c2c(-c3ccnnc3)n[nH]c2NC(=O)CCc2ccc(Cl)nc2)CC1` [Example 321], the 50% inhibitory concentration (IC50) was less than 5 µM.

Regarding `Cc1c(-c2ccncc2)n[nH]c1NC(=O)CCNC(=O)C1CC1C` (stereo not drawn) [Example 243], the IC50 lay in the range of 5 to 15 µM.

As to `COc1ccc(CCC(=O)Nc2nnc(-c3ccncc3)[nH]2)cc1` [Example 127], the IC50 is less than 5 µM.

Turning to `N[C@H](Cc1ccc(Cl)cc1)C(=O)Nc1nnc(-c2ccncc2)[nH]1` [Example 82], the IC50 was less than 5 µM.

`Cc1ccccc1CCC(=O)Nc1nnc(-c2ccncc2)[nH]1` [Example 141] gave a concentration for half-maximal inhibition (IC50) of less than 5 µM.

`O=C(CCc1cccc(F)c1)Nc1nnc(-c2ccncc2)[nH]1` [Example 15]: the IC50 was less than 5 µM.

`CCc1c(-c2ccncc2)n[nH]c1NC(=O)CN1CCCc2sccc2C1=O` [Example 256] returned an IC50 of 5 to 15 µM.

`CCOC(=O)Cc1c(-c2ccncc2)n[nH]c1NC(=O)CCc1ccc(Cl)cc1` [Example 229] registered an IC50 of less than 5 µM.

On to `[2H]C([2H])(C(=O)Nc1[nH]nc(-c2ccncc2)c1C)C([2H])([2H])c1ccc(Cl)nc1` [Example 171], for which the 50% inhibitory concentration (IC50) is less than 5 µM.

Take `Cc1c(-c2ccncc2)n[nH]c1NC(=O)CCc1ccc(F)cc1` [Example 221]: the concentration for half-maximal inhibition (IC50) was less than 5 µM.

The compound `O=C(Nc1cc(-c2ccnnc2)n[nH]1)[C@H]1C[C@H](c2ccc(Cl)nc2)C1` [Example 210] gave an IC50 of less than 5 µM.

On to `O=C(CC1OCCc2ccccc21)Nc1nnc(-c2ccncc2)[nH]1` (stereo not drawn) [Example 58], for which the IC50 lay in the range of 5 to 15 µM.

For `C[C@@H](CC(=O)Nc1nnc(-c2ccncc2)[nH]1)c1ccccc1` [Example 93], the concentration for half-maximal inhibition (IC50) was 15 to 30 µM.

Turning to `O=C(CCc1ccc(Cl)c(F)c1)Nc1nnc(-c2ccnnc2)[nH]1` [Example 13], the IC50 was less than 5 µM.

`CCc1ccc(CCC(=O)Nc2nc(-c3ccncc3)n[nH]2)cc1` [Example 44] returned an IC50 of less than 5 µM.

Turning to `Cc1c(-c2ccncc2)n[nH]c1NC(=O)CCc1cc(F)cc(F)c1` [Example 222], the IC50 is less than 5 µM.

Consider `Cc1c(-c2ccncc2)n[nH]c1NC(=O)CN(C)c1ccc(Cl)cc1` [Example 224], for which the concentration for half-maximal inhibition (IC50) lay within 5 to 15 µM.

In the case of `O=C(CNc1ccc(Cl)cc1)Nc1cc(-c2ccncc2)n[nH]1` [Example 4], the half-inhibitory concentration (IC50) is less than 5 µM.

`Cc1c(-c2ccnnc2)n[nH]c1NC(=O)CCc1ccc(Cl)nc1` [Example 205] returned an IC50 of less than 5 µM.

For the compound `O=C(CCc1ccc(Cl)c(Cl)c1)Nc1nnc(-c2ccncc2)[nH]1` [Example 101], the IC50 is less than 5 µM.

`O=C(Nc1cc(-c2ccncc2)n[nH]1)[C@H]1C[C@H](c2ccc(Cl)nc2)C1` [Example 236]: the half-inhibitory concentration (IC50) is less than 5 µM.

For the compound `N#Cc1c(-c2ccncc2)n[nH]c1NC(=O)CCc1ccc(Cl)nc1` [Example 195], the IC50 is less than 5 µM.

`Clc1ccc(CCCNc2nnc(-c3ccncc3)[nH]2)cc1` [Example 41]: the IC50 is greater than 30 µM.

`[2H]C([2H])(C(=O)Nc1[nH]nc(-c2ccnnc2)c1C)C([2H])([2H])c1ccc(Cl)cc1` [Example 177] showed an IC50 of less than 5 µM.

Compound `CC1(c2c(-c3ccnnc3)n[nH]c2NC(=O)CCc2ccc(Cl)cc2)CC1` [Example 311] came in with an IC50 of less than 5 µM.

`CN(Cc1ccc(Cl)cc1)C(=O)Nc1cc(-c2ccncc2)n[nH]1` [Example 6] returned an IC50 of less than 5 µM.

Regarding `O=C(CCc1ccc(Cl)cc1)Nc1cc(-c2ccncc2)[nH]n1` [Example 114], the concentration for half-maximal inhibition (IC50) was less than 5 µM.

`Cc1c(-c2ccncc2)n[nH]c1NC(=O)[C@@H](O)Cc1ccc(Cl)cc1` [Example 290] displayed an IC50 of less than 5 µM.

`Cc1c(-c2ccncc2)n[nH]c1NC(=O)C1CN(c2ccc(Cl)cc2)C1` [Example 220] gave an IC50 of 5 to 15 µM.

On to `O=C(Nc1nnc(-c2ccncc2)[nH]1)N1CCc2cc(Cl)ncc2C1` [Example 296], for which the half-maximal inhibitory concentration (IC50) is less than 5 µM.

The compound `COc1cnccc1-c1nnc(NC(=O)CCc2ccc(Cl)cc2)[nH]1` [Example 32] registered a 50% inhibitory concentration (IC50) of less than 5 µM.

`CNC(=O)Cc1c(-c2ccncc2)n[nH]c1NC(=O)CCc1ccc(Cl)nc1` [Example 285] yielded an IC50 of less than 5 µM.

`O=C(CN1C(=O)COc2cc(Cl)ccc21)Nc1cc(-c2ccncc2)n[nH]1` [Example 38]: the IC50 is greater than 30 µM.

As to `Cc1c(-c2ccnnc2)n[nH]c1NC(=O)C[C@H]1CCOc2cc(Cl)ccc21` [Example 278], the IC50 was less than 5 µM.

Compound `O=C(CC1CCOc2cc(Cl)ccc21)Nc1nnc(-c2ccncc2)[nH]1` (stereo not drawn) [Example 29] showed an IC50 of less than 5 µM.

Compound `[2H]C([2H])(C(=O)Nc1cc(-c2ccnnc2)n[nH]1)C([2H])([2H])c1ccc(Cl)cc1` [Example 189] came in with an IC50 of less than 5 µM.
